In ChEMBL document CHEMBL6103650, “Hybrid Molecules of Benzothiazole and Hydroxamic Acid as Dual-Acting Biofilm Inhibitors with Antibacterial Synergistic Effect against Pseudomonas aeruginosa Infections” (J Med Chem, 2025):

What was measured:
[1] = test system: Pseudomonas aeruginosa; assay: Antibacterial activity against Pseudomonas aeruginosa PAO1 assessed as inhibition of bacterial growth incubated for 24 hrs by serial dilution method; assay type: functional
[2] = test system: Pseudomonas aeruginosa; assay: Antibiofilm activity against Pseudomonas aeruginosa PAO1 assessed as inhibition of biofilm formation incubated for 24 hrs by crystal violet staining based analysis; assay type: functional, organism-based; settings: PAO1, 24 h
[3] = test system: Pseudomonas aeruginosa; assay: Antibiofilm activity against Pseudomonas aeruginosa PA14 assessed as inhibition of biofilm formation incubated for 24 hrs by crystal violet staining based analysis; assay type: functional, organism-based; settings: PA14, 24 h
[4] = test system: Pseudomonas aeruginosa; assay: Antibiofilm activity against Pseudomonas aeruginosa PAO1 assessed as reduction in pFe(III) content incubated for 24 hrs; assay type: functional
[5] = test system: Pseudomonas aeruginosa; assay: Antibacterial activity against Pseudomonas aeruginosa PAO1 infected in BALB/c mouse wound infection model assessed as bacterial survival rate in wound at 0.5 mg/mL administered to wound once a day for 3 days in dropwise manner; assay type: functional; settings: PAO1, 72 h, time 3 day
[6] = test system: Pseudomonas aeruginosa; assay: Antibacterial activity against Pseudomonas aeruginosa PAO1 infected in BALB/c mouse wound infection model assessed as reduction in wound area at 0.5 mg/mL administered to wound once a day for 3 days and measured after 9 days in dropwise manner; assay type: functional; parameters: scale not given: the % may be the effect or the level left; settings: time 12 day
[7] = test system: Pseudomonas aeruginosa; assay: Antibacterial activity against Pseudomonas aeruginosa PAO1 infected in BALB/c mouse wound infection model assessed as reduction in wound area at 0.0025 mg/mL administered to wound once a day for 3 days and measured after 9 days in dropwise manner; assay type: functional; parameters: scale not given: the % may be the effect or the level left; settings: time 12 day

Structure (SMILES) | MIC [1] | IC50 [2] | IC50 [3] | Activity [4] | survival at 500 µg/mL [5] | Activity [6] | Activity [7]
O=C(Cn1cc(CNc2nc3ccc(C(F)(F)F)cc3s2)nn1)NO | > 256 µM | 2.03 µM | 5.42 µM | – | – | – | –
CC[C@H]1OC(=O)[C@H](C)[C@@H](O[C@H]2C[C@@](C)(OC)[C@@H](O)[C@H](C)O2)[C@H](C)[C@@H](O[C@@H]2O[C@H](C)C[C@H](N(C)C)[C@H]2O)[C@](C)(O)C[C@@H](C)CN(C)[C@H](C)[C@@H](O)[C@]1(C)O [AZITHROMYCIN] | > 256 µM | 11 µM | 38.5 µM | – | – | – | –
Cc1c(O)c(=O)ccn1C [DEFERIPRONE] | – | – | – | 20.13 | – | – | –
COc1ccc2nc(NCC(=O)NC3CCC(C(=O)NO)CC3)sc2c1 (centres undefined) | > 256 µM | 6.64 µM | 14.7 µM | – | – | – | –
CCOc1ccc2nc(NCC(=O)NCc3ccc(CC(=O)NO)cc3)sc2c1 | > 256 µM | 4 µM | 13.4 µM | – | – | – | –
O=C(Cn1cc(CNC(=O)c2nc3ccccc3s2)nn1)NO | > 256 µM | 12.8 µM | 24.4 µM | – | – | – | –
O=C(CCCCCNC(=O)c1nc2ccccc2s1)NO | > 256 µM | 10.2 µM | 19.1 µM | – | – | – | –
O=C(CCCCCCNC(=O)c1nc2ccccc2s1)NO | > 256 µM | 14.3 µM | 36.4 µM | – | – | – | –
O=C(CCCNC(=O)c1nc2ccccc2s1)NO | > 256 µM | 1.89 µM | 4.29 µM | – | – | – | –
COc1ccc2nc(NCc3cn(CC(=O)NO)nn3)sc2c1 | > 256 µM | 1.94 µM | 5.09 µM | – | – | – | –
O=C(NO)c1ccc(CNC(=O)c2nc3ccccc3s2)cc1 | > 256 µM | 3.85 µM | 11.1 µM | – | – | – | –
COc1cccc2sc(NCC(=O)Nc3ccc(CC(=O)NO)cc3)nc12 | > 256 µM | 1.42 µM | 3.92 µM | – | – | – | –
O=C(Cc1ccc(CNC(=O)CNc2nc3cc(Br)ccc3s2)cc1)NO | > 256 µM | 2.48 µM | 6.3 µM | – | – | – | –
O=C(Cc1ccc(CNC(=O)CNc2nc3ccc(Br)cc3s2)cc1)NO | > 256 µM | 1.17 µM | 2.93 µM | – | – | – | –
O=C(Cn1cc(CNc2nc3ccc(Cl)cc3s2)nn1)NO | > 256 µM | 10.2 µM | 17.5 µM | – | – | – | –
O=C(CCCCNC(=O)CNc1ccccc1)NO | > 256 µM | > 80 µM | > 100 µM | – | – | – | –
O=C(Cc1ccc(CNC(=O)CNc2nc3ccc(C(F)(F)F)cc3s2)cc1)NO | > 256 µM | 3.16 µM | 7.3 µM | – | – | – | –
COc1ccc2nc(NCC(=O)NCc3ccc(CC(=O)NO)cc3)sc2c1 | > 256 µM | 6.23 µM | 15.6 µM | – | – | – | –
NC[C@H]1O[C@H](O[C@H]2[C@H](O)[C@@H](O[C@H]3O[C@H](CO)[C@@H](O)[C@H](N)[C@H]3O)[C@H](N)C[C@@H]2N)[C@H](N)C[C@@H]1O [TOBRAMYCIN] | – | – | – | – | 0.22% | 36% | 41%
O=C(Cc1ccc(CNC(=O)CNc2nc3cc(F)ccc3s2)cc1)NO | > 256 µM | 3.17 µM | 7.9 µM | – | – | – | –
Cc1ccc2nc(NCC(=O)Nc3ccc(CC(=O)NO)cc3)sc2c1 | > 256 µM | 1.64 µM | 4.33 µM | – | – | – | –
COc1cccc2sc(NCC(=O)NCc3ccc(CC(=O)NO)cc3)nc12 | > 256 µM | 2.85 µM | 7.78 µM | – | – | – | –
Cc1ccc2nc(NCC(=O)NCc3ccc(CC(=O)NO)cc3)sc2c1 | > 256 µM | 2.03 µM | 5.6 µM | – | – | – | –

More lines, main results first:

MIC [1] | IC50 [2] | IC50 [3] | Structure (SMILES) | Activity [4] | survival at 500 µg/mL [5] | Activity [6] | Activity [7]
> 256 µM | 2.05 µM | 5.67 µM | O=C(CCCCNC(=O)CNc1nc2ccc(Cl)cc2s1)NO | – | – | – | –
> 256 µM | > 80 µM | > 100 µM | COc1ccc2nc(NCC(=O)NCCCCN)sc2c1 | – | – | – | –
> 256 µM | 1.29 µM | 3.41 µM | COc1ccc2sc(NCC(=O)NCCCCC(=O)NO)nc2c1 | – | – | – | –
> 256 µM | 3.67 µM | 11.7 µM | O=C(CCCCCNC(=O)CNc1nc2ccc(C(F)(F)F)cc2s1)NO | – | – | – | –
> 256 µM | 0.51 µM | 1.89 µM | COc1cccc2sc(NCC(=O)NCCCCC(=O)NO)nc12 | – | – | – | –
> 256 µM | 1.49 µM | 4.49 µM | O=C(CCCCNC(=O)CNc1nc2ccc(Br)cc2s1)NO | – | – | – | –
> 256 µM | 14.8 µM | 30.9 µM | O=C(CCCCNC(=O)CNc1nccs1)NO | – | – | – | –
> 256 µM | 7.02 µM | 15 µM | O=C(CCCCNC(=O)CNc1nc2cc(Cl)ccc2s1)NO | – | – | – | –
> 256 µM | 5.15 µM | 15.2 µM | COc1ccc2nc(NCC(=O)NCCCC(=O)NO)sc2c1 | – | – | – | –
> 256 µM | 26.9 µM | 54.5 µM | COc1ccccc1NCC(=O)NCCCCC(=O)NO | – | – | – | –
> 256 µM | 14.7 µM | 18.4 µM | COC(=O)CCCCNC(=O)CNc1nc2ccc(OC)cc2s1 | – | – | – | –
> 256 µM | 1.58 µM | 4.26 µM | O=C(CCCCCNC(=O)CNc1nc2ccccc2s1)NO | – | – | – | –
> 256 µM | 20.9 µM | 36.6 µM | O=C(CCCCCNC(=O)CNc1nc2ccc(Cl)cc2s1)NO | – | – | – | –
> 256 µM | 0.79 µM | 2.21 µM | Cc1ccc2nc(NCC(=O)NCCCCC(=O)NO)sc2c1 | – | – | – | –
> 256 µM | 2.01 µM | 5.26 µM | O=C(CCCCNC(=O)CNc1nc2ccc(F)cc2s1)NO | – | – | – | –
> 256 µM | 13.6 µM | 24.4 µM | O=C(CCCCCCNC(=O)CNc1nc2ccc(Cl)cc2s1)NO | – | – | – | –
> 256 µM | 1.6 µM | 3.85 µM | COc1ccc2nc(NCC(=O)NCCCCCC(=O)NO)sc2c1 | – | – | – | –
> 256 µM | 3.25 µM | 6.65 µM | O=C(CCCCCCNC(=O)CNc1nc2ccc(C(F)(F)F)cc2s1)NO | – | – | – | –
> 256 µM | 3.33 µM | 7.02 µM | O=C(CCCCNC(=O)CNc1nc2ccccc2s1)NO | – | – | – | –
> 256 µM | 14.7 µM | 28.9 µM | O=C(CCCCNC(=O)CNc1nc2cc(F)ccc2s1)NO | – | – | – | –
> 256 µM | 1.72 µM | 4.26 µM | O=C(CCCCNC(=O)CNc1nc2ccc(C(F)(F)F)cc2s1)NO | – | – | – | –
> 256 µM | > 80 µM | > 100 µM | COc1ccc(NCC(=O)NCCCCC(=O)NO)cc1 | – | – | – | –
> 256 µM | 8.77 µM | 14 µM | O=C(CCCCCCNC(=O)CNc1nc2ccccc2s1)NO | – | – | – | –
> 256 µM | > 80 µM | > 100 µM | COc1cccc(NCC(=O)NCCCCC(=O)NO)c1 | – | – | – | –
